US5770625A, “Butyryl-tyrosinyl spermine, analogs thereof and methods of preparing and using same” (priority 1994, dated 1998)
Entries after “also recorded” stand apart in the source; their conditions may differ. Where two headings read alike, the source gives them in different places.

System: postsynaptic QUIS-R of locust leg muscle
Experiment: Antagonism of neurally-evoked twitch contraction of locust retractor unguis nerve-muscle preparation
Set-up: species or system Schistocerca gregaria
Details: for IC50: read-out: IC50
Excerpt: Electrophysiological studies. The metathoracic retractor unguis nerve-muscle preparation of the locust Schistocerca gregaria was dissected and mounted in a small Perspex bath as described previously (21). The pharmacological activity on the locust nerve muscle preparation, using reduction in neurally evoked twitch amplitude as the measure of activity. Ten fractions were pharmacologically active. […] Further purification of this fraction by reverse-phase HPLC gave four peaks (FIG. 2B), the most pharmacologically was in the major peak (hatched FIG. 2B) . This fraction gave 1.1 mg of toxin as amorphous powder.
The retractor unguis muscle and its nerve were dissected from the metathoracic legs of adult, female locusts (Schistocerca gregaria) and mounted in a Perspex perfusion chamber as described by Usherwood and Machili (21) and Bateman, et al. (14). The muscle was stretched to maximal body length and attached at its tendon or apodeme to a Grass FT 10-strain gauge by a short length of nylon thread. The volume of the muscle bath was about 0.5 ml and its contents could be exchanged within 1 sec. The preparation was perfused continuously at the rate of 5-10 ml min^-1 (except during the application of toxin (see below)) with standard locust saline of the following composition (mM): NaCl, 180; KCl, 10; CaCl2, 2; Hepes, 10; buffered to pH 6.8. The retractor unguis muscle is innervated by two excitatory motoneurons (30) and an inhibitory motoneuron (19,32), but the influence of the latter on the responsiveness of the muscle is slight. Maximal stimulation of the retractor unguis nerve at 0.2 Hz produced a series of twitch contractions of constant amplitude, which were maintained for many hours in good preparations. The test compounds were kept at -20° C. They were dissolved in locust saline on the day of the assay and tested at room temperature. The compounds were applied by pipette to a nerve-muscle preparation such that the contents of the perfusion bath were completely replaced by the test solution. Exposure to the test compound lasted 20 min. Because of the limited availability of some of the compounds, the preparation was not perfused during this period. However, the amplitude of the retractor unguis muscle twitch rarely changed by more than 5-10% over a 20 minute period. During application of the test solutions the stimulation frequency was raised to 0.6 Hz for brief periods to test for stimulus frequency-dependent effects on twitch amplitude (31,37). Dose-inhibition data were obtained by testing the effects, on single retractor unguis muscle preparations, of a range of concentrations of the test compounds. Each concentration of the respective samples was tested at least thee times, and each compound was assayed usually over a 100-fold concentration range (a total of 7-10 concentrations). The standard deviations for twitch inhibition for any given concentration of a toxin rarely exceed 10%. Those compounds for which the deviation was greater than this are identified in Tables 1-7. There was some variation in the potency of PhTX-343 and the test compounds between nerve-muscle preparations. In order to compensate for this, the following procedure was adopted: PhTX-343 was assayed at a variety of concentrations on eight retractor unguis nerve-muscle preparations to give a cumulative dose-inhibition relationship for this toxin. The concentration of PhTX-343 which reduced the twitch contraction by 50% (IC50) was then determined by fitting a curve to the data using the following equation: [formula] where: [T]= toxin concentration, I= % inhibition, Imax =maximum inhibition= 100% and n' represents the Hill slope coefficient. […] The ratio of the actual reduction in twitch amplitude obtained with this single concentration of PhTX-343 and the 50% reduction that was anticipated from the cumulative dose-inhibition relationship for this toxin, was then used as a factor to normalize the data for the test compound. […]

[1] = Table 2, region B modifications, * SD < 20%
[2] = Table 2, relative to PhTX-343 = 1.0
[3] = Table 4, terminal amino group modifications, * SD < 20%
[4] = Table 4, relative to PhTX-343 = 1.0
[5] = Table 7, bis-acyl spermine analogues
[6] = Table 7, bis-acyl spermine analogues, relative to PhTX-343
[7] = Table 6, bis analogues of PhTX-343
[8] = Table 3, region C modifications
[9] = Table 3, relative to PhTX-343 = 1.0
[10] = Table 1, region A modifications, 20 min exposure, normalized with PhTX-343, ** SD < 30%
[11] = Table 1, relative to PhTX-343 = 1.0
[12] = Table 5, modifications to more than one region

## CCCC(=O)N[C@@H](Cc1cc(I)c(O)c(I)c1)C(=O)NCCCNCCCCNCCCN [drawing 35]
[1]
  IC50: 5.3 µM
[2]
  Relative Potency: 4.4

## CCCC(=O)N[C@@H](Cc1c[nH]c2ccccc12)C(=O)NCCCNCCCCNCCCN [drawing 39]
[1]
  IC50: 2.5 µM
[2]
  Relative Potency: 9.2

## CCCC(=O)N[C@@H](Cc1ccc(O)cc1)C(=O)NCCCNCCCCNCCCNC(=O)[C@@H](N)CCCNC(=N)N [drawing 62]
[3]
  IC50: 6.3 µM
[4]
  Relative Potency: 3.7

## [N-]=[N+]=C(C(=O)NCCCC(=O)N[C@@H](Cc1ccc(O)cc1)C(=O)NCCCNCCCCNCCCN)C(F)(F)F [Compound 27]
  potency compared with PhTX-343 or other analogues (in words): only weakly active

## CCCCCCCCCC(=O)NCCCNCCCCNCCCNC(=O)CCCCCCCCC [drawing 82]
[5]
  IC50: 23 µM
[6]
  Relative Potency: 1.0

## CCCC(=O)NCCCNCCCCNCCCNC(=O)CCC [Compound 50]
  potency compared with PhTX-343 or other analogues (in words): low potencies
[5]
  IC50: 2300 µM
[6]
  Relative Potency: 0.1

## CCCCCCC(=O)N[C@@H](Cc1ccc(O)cc1)C(=O)NCCCNCCCCNCCCNC(=O)[C@H](Cc1ccc(O)cc1)NC(=O)CCCCCC
[7]
  IC50 (M): insol.

## NCCCNCCCCNCCCNC(=O)[C@H](Cc1ccc(O)cc1)NC(=O)C1CCCCC1 [drawing 46]
[8]
  IC50: 9.3 µM
[9]
  Relative Potency: 2.5

## CCCC(=O)N[C@@H](Cc1ccc(O)cc1)C(=O)NCCCCNCCCN [drawing 24]
[10]
  IC50: 39 µM
[11]
  Relative Potency: 0.6

## [N-]=[N+]=Nc1ccc(C(=O)N[C@@H](Cc2ccc(O)cc2)C(=O)NCCCNCCCCNCCCNC(=O)[C@@H](N)CCCCN)cc1 [Compound 40, N-(p-azidobenzamide)-L-tyrosyl-spermine-L-lysine-triamide]
[12]
  IC50: 3.3 µM
Table 5, relative to PhTX-343
  Relative Potency: 7

## CCCC(=O)N[C@@H](Cc1ccc(O)cc1)C(N)=O [drawing 26]
[10]
  IC50: 500 µM
[11]
  Relative Potency: 0.05

## CCCC(=O)N[C@@H](Cc1ccc(O)cc1)C(=O)NCCCNCCCCNCCCNC(C)=O [Compound 32]
  potency compared with PhTX-343 or other analogues (in words): low potency

## CCCC(=O)N[C@@H](Cc1ccc(OCc2ccccc2)cc1)C(=O)NCCCNCCCCNCCCN [Compound 12, N-butyryl-O-benzyl-L-tyrosine-spermineamide]
  potency compared with PhTX-343 or other analogues (in words): unchanged potencies

## CCCC(=O)N[C@@H](Cc1ccc(OCc2ccccc2)cc1)C(=O)NCCCNCCCCNCCCN [drawing 34]
[1]
  IC50: 24 µM
[2]
  Relative Potency: 1.0

## CCCC(=O)N[C@@H](Cc1ccc(O)cc1)C(=O)NCCCCNCCCN [Compound 4, PhTX-43]
  potency compared with PhTX-343 or other analogues (in words): reduced potency

## CCCC(=O)N[C@@H](Cc1ccc(O)cc1)C(=O)NCCCNCCCCNCCCNC(=O)C(N)CCCCN (stereo partly shown) [drawing 61]
[3]
  IC50: 13 µM
[4]
  Relative Potency: 1.8

## CCCCC(CNCCCN)CNCCCCNC(=O)[C@H](Cc1ccc(O)cc1)NC(=O)CCC (stereo partly shown) [Compound 8, PhTX-(butyl)433]
  potency compared with PhTX-343 or other analogues (in words): increased potency by almost six-fold

## NCCCNCCCCNCCCNC(=O)[C@H](Cc1ccc(O)cc1)NC(=O)Cc1ccccc1 [Compound 24]
  potency compared with PhTX-343 or other analogues (in words): less potent than PhTX-343

## CC(=O)N[C@@H](Cc1ccc(O)cc1)C(=O)NCCCNCCCCNCCCN [Compound 18]
  potency compared with PhTX-343 or other analogues (in words): slight but significant reduction in potency

## CCCCCCCCCC(=O)N[C@@H](Cc1ccc(O)cc1)C(=O)NCCCNCCCCNCCCNC(=O)[C@H](Cc1ccc(O)cc1)NC(=O)CCCCCCCCC
[7]
  IC50 (M): insol.

## CCCC(=O)N[C@@H](Cc1cc(I)c(O)c(I)c1)C(=O)NCCCNCCCCNCCCNC(=O)[C@@H](N)CCCNC(=N)N [drawing 66]
[12]
  IC50: 0.7 µM
Table 5, relative to PhTX-343
  Relative Potency: 33

## CCCC(=O)N[C@@H](Cc1cc(I)c(O)c(I)c1)C(=O)NCCCNCCCCNCCCNC(=O)[C@@H](N)CCCCN [Compound 38, diiodo-PhTX-lysine]
  potency compared with PhTX-343 or other analogues (in words): more potent than PhTX-343

## CCCC(=O)N[C@@H](Cc1ccc(O)cc1)C(=O)NCCCNCCCCNCCCNC(=O)C(N)CCCCNC(=O)C(N)CCCCN (stereo partly shown) [drawing 63]
[3]
  IC50: 11 µM
[4]
  Relative Potency: 2.1

## NCCCNCCCCNCCCNC(=O)[C@H](Cc1ccc(O)cc1)NC(=O)c1ccccc1 [Compound 23]
  potency compared with PhTX-343 or other analogues (in words): equipotent with the C10 analogue 20

## CCCCCCC(=O)N[C@@H](Cc1ccc(O)cc1)C(=O)NCCCNCCCCNCCCN [Compound 19]
  potency compared with PhTX-343 or other analogues (in words): successive increases in potency

## CCCCCCCCCC(=O)NCCCNCCCCNCCCNC(=O)CCCCCCCCC [Compound 52, bis-C10 -spermine]
  potency compared with PhTX-343 or other analogues (in words): as active as PhTX-343; also recorded: relatively high potencies

## CCCC(=O)N[C@@H](Cc1ccc(O)cc1)C(=O)NCCCNCCCCNCCCNC(=O)C(N)CCCCN (stereo partly shown) [Compound 35]
  potency compared with PhTX-343 or other analogues (in words): increased potency

## NCCCNCCCCNCCCNC(=O)[C@H](Cc1ccc(O)cc1)NC(=O)CCCCCNC(=O)CCCCC1SCC2NC(=O)NC21 (stereo partly shown)
[8]
  IC50 (M): insol.

## CCCC(=O)N[C@@H](Cc1ccc(O)cc1)C(=O)NCCCNCCCCNCCCNC(=O)CN [Compound 33]
  potency compared with PhTX-343 or other analogues (in words): potency was reduced

## [N-]=[N+]=Nc1ccc(C(=O)N[C@@H](Cc2ccc(O)cc2)C(=O)NCCCNCCCCNCCCN)cc1 [drawing 50]
[8]
  IC50: 4.2 µM
[9]
  Relative Potency: 5.5

## CCCCC(CNCCCN)CNCCCCNC(=O)[C@H](Cc1ccc(O)cc1)NC(=O)CCC (stereo partly shown) [drawing 28]
[10]
  IC50: 4 µM
[11]
  Relative Potency: 5.6

## O=C(N[C@@H](Cc1ccc(O)cc1)C(=O)NCCCNCCCCNCCCNC(=O)[C@H](Cc1ccc(O)cc1)NC(=O)c1ccccc1)c1ccccc1
[7]
  IC50: 110 µM
Table 6, relative to PhTX-343
  Relative Potency: 0.2

## CCCC(=O)N[C@@H](Cc1c[nH]c2ccccc12)C(=O)NCCCNCCCCNCCCN [Compound 17]
  increase in potency compared with PhTX-343: 10 fold

## CC(=O)N[C@@H](Cc1ccc(O)cc1)C(=O)NCCCNCCCCNCCCN [drawing 42]
[8]
  IC50: 50 µM
[9]
  Relative Potency: 0.7

## NCCCNCCCCNCCCNC(=O)[C@H](Cc1ccc(O)cc1)NC(=O)CCCNc1ccc([N+](=O)[O-])cc1[N+](=O)[O-]
[8]
  IC50: 53 µM
[9]
  Relative Potency: 0.4

## CCCC(=O)N[C@@H](Cc1ccc(OC(C)=O)cc1)C(=O)NCCCNCCCCNCCCN [Compound 11]
  potency compared with PhTX-343 or other analogues (in words): unchanged potencies

## CCCC(=O)N[C@@H](Cc1ccc(O)cc1)C(=O)NCCCNCCCNCCCCN [Compound 3, PhTX-334]
  potency compared with natural PhTX-433 (in words): higher potency than the natural PhTX-433 toxin
PhTX-433 = 100%
  physiological activity relative to that of PhTX-433, by locust muscle twitch inhibition concentration: 125%
Toxin 1-10 μM
  effect on the neurally-evoked twitch contraction (in words): influenced the twitch contraction in the same qualitative fashion as PhTX-433

## [N-]=[N+]=Nc1ccc(C(=O)N[C@@H](Cc2ccc(O)cc2)C(=O)NCCCNCCCCNCCCN)cc1 [Compound 26]
  potency compared with PhTX-343 or other analogues (in words): reasonably active

## CCCCCCC(=O)NCCCNCCCCNCCCNC(=O)CCCCCC
[5]
  IC50 (M): agonist

## CCCCCCC(=O)NCCCNCCCCNCCCN [drawing 77]
Table 7, mono-acyl spermine analogues
  IC50: 100 µM
Table 7, mono-acyl spermine analogues, relative to PhTX-343
  Relative Potency: 0.2

## CCCC(=O)N[C@@H](Cc1ccc(O)cc1)C(=O)NCCCNCCCCNCCCNC(C)=O [drawing 58]
[3]
  IC50: 300 µM
[4]
  Relative Potency: 0.08
